Structures can show the parent of a compound that is named as a salt.
Tests used:
[1] = molecular target: T1, human α5β3γ2 GABAARs in mouse L(tk−) cells (Homo sapiens, UniProt P18507+P31644); test: In vitro electrophysiological recording assay (α5-GABAAR relative efficacy), QPatch; format: cell-based; conditions: GABA EC10-20
T1 construct: expressed in transfected cells; host or cells: mouse L(tk−) cells, dexamethasone-inducible vector pMSGneo
Outline: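 Whole-cell QPatch recordings at 20-22° C, −65 mV holding, in dexamethasone-induced (1 μM, 24 h) L(tk−) cells. Compound pre-applied ≥1 min, then co-applied with GABA EC10-20; percentage change in leak-corrected peak current, taken at ≥100× Ki, normalised to DMCM efficacy; 0.1% DMSO final.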

[2] = molecular target: T2, human recombinant GABAAR containing α5β3γ2 subunits (benzodiazepine site) (Homo sapiens, UniProt P18507+P31644); test: In vitro radioligand binding assay (α5-GABAAR Ki); conditions: inhibition of [3H]Ro15-1788 binding, membranes of L(tk−) cells expressing human α5β3γ2; read-out: α5-GABAAR Ki
T2 construct: expressed in transfected cells; host or cells: mouse L(tk−) cells, dexamethasone-inducible vector pMSGneo
T2 sequence (P31644 32-462): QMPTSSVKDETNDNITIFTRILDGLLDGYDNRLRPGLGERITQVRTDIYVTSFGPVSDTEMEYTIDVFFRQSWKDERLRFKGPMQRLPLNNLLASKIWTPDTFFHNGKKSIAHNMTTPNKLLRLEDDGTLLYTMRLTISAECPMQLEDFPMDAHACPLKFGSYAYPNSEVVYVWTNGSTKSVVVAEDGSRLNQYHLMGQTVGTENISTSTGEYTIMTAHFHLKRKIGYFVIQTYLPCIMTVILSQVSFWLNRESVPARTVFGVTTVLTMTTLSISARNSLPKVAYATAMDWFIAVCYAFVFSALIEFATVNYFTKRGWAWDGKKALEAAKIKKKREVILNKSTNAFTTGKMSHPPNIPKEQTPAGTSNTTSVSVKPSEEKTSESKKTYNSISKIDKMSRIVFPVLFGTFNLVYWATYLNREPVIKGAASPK
T2 sequence (P28472 26-473 partner): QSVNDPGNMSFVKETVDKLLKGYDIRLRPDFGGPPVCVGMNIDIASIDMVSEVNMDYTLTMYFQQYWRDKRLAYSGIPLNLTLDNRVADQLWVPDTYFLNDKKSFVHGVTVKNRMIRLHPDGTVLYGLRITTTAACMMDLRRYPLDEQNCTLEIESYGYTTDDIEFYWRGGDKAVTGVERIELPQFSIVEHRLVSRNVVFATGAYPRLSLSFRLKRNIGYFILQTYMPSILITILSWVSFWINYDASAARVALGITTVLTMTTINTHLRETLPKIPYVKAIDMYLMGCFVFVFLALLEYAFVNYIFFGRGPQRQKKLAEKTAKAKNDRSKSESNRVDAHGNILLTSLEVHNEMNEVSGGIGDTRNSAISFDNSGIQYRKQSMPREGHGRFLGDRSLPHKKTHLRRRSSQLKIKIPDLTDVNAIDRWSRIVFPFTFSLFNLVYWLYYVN
T2 sequence (P18507 40-475): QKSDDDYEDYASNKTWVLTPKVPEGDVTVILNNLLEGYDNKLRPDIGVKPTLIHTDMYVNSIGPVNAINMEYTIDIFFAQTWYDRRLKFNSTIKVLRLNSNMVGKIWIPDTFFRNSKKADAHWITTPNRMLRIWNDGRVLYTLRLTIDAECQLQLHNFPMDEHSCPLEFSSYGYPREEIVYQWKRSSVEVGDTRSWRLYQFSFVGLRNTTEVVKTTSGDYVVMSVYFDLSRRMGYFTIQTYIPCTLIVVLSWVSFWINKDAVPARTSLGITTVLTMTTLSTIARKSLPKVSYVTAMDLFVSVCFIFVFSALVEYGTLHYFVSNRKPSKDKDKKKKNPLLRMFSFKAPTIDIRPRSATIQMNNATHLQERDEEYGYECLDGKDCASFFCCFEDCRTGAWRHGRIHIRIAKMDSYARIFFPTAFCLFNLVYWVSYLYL
Outline: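 Displacement of 4 nM [^3H]flumazenil from the benzodiazepine site, read by filtration and scintillation, gave IC50, converted to Ki (Cheng-Prusoff, saturation-derived Kd). Receptor: human α5β3γ2 membranes from L(tk^−) cells, 50 μg protein/well; 1 h, 4° C; TP003 1 μM defined nonspecific binding.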

[3] = molecular target: T3, human α5β3γ2L GABAA receptors in HEK293 cells (Homo sapiens, UniProt P18507+P31644); test: In vitro electrophysiological recording assay (α5-GABAAR relative efficacy), SyncroPatch; format: cell-based; conditions: Conc 0.1 μM; GABA EC10-20
T3 construct: expressed in transfected cells
T3 sequence (P31644 32-462): as the sequence (P31644 32-462) above
T3 sequence (P28472 26-473 partner): as the sequence (P28472 26-473 partner) above
T3 sequence (P18507 40-475): as the sequence (P18507 40-475) above
Excerpt: Mouse L(tk^−) cells stably expressing human α1β3γ2, α2β3γ2, α3β3γ2, α5β3γ2 GABAARs generated by transfection of the individual subunits in the dexamethasone-inducible expression vector pMSGneo in mouse L(tk^−) cells (Hadingham et al., 1993, Mol. Pharmacol. 43:970-975 and 1993, Mol. Pharmacol. 44:1211-1218) were used for binding and functional assays. For certain compounds, HEK293 cells stable expressing the human α1β3γ2L, α2β3γ2L, α3β3γ2L and α5β3γ2L GABAA receptors were used to evaluate their functional effects in a SyncroPatch electrophysiology assay.
The efficacy of modulators was evaluated using either the automated patch-clamp platform QPatch16 (Sophion, Copenhagen, Denmark) or the SyncroPatch 384i (Nanion Technologies, Germany). Cells were harvested from flasks by enzymatic dissociation and re-suspended in serum-free medium.
For the Syncropatch recordings, a stacked addition protocol was used, in which GABA was rapidly applied and then washed off from the cell. All experiments were carried out at room temperature (20-22° C.) using a standard whole cell procedure. The currents recorded were acquired at 2 kHz and filtered using a Bessel filter. Whole-cell currents were measured at a holding potential of −80 mV.
For Syncropatch recordings, the extracellular recording solution contained: 140 mM NaCl, 4 mM KCl, 2 mM CaCl2), 1 mM MgCl2, 10 mM HEPES, 5 mM glucose (pH 7.4 and osmolarity of c. 300-310 mOsm/L). The intracellular recording solution contained: 90 mM KCl, 50 mM KF, 1.5 mM MgCl2, 11.1 mM EGTA and 10 mM HEPES (pH 7.2 and osmolarity of c. 300 mOsm/L). 2 mM of NaATP was added to the intracellular solution on the day of testing.
The effects of modulators were evaluated in the presence of a submaximal GABA concentration, giving typically 10-20% activation (GABA EC10-20) of the response elicited by a saturating GABA concentration. For QPatch recordings, to check and ensure baseline current stability before compound addition, five consecutive applications of GABA EC10-20 alone (each application with a 2 s duration, separated by minimum 1 min wash off periods) were performed before compound addition. The test compound was applied using the pipetting system of the QPatch system 1 min at least prior to co-application with GABA EC10-20. For SyncroPatch recordings, GABA EC20 alone was applied three times (1 s long applications, with wash steps in-between) before compound addition. This was followed by a 1-2 min pre-incubation with the test compound and then re-application of GABA EC10-20 in the presence of the compound. Finally, following a further wash step, a saturating concentration of GABA was applied, allowing the accurate evaluation for each cell of the percentage baseline activation elicited by the submaximal GABA applied.
The compounds were first dissolved in DMSO as a 10 mM stock and then further diluted to the testing concentrations so that the final DMSO concentration in the extracellular recording solution was kept constant at 0.1% for the QPatch recordings, or 0.2% for the SyncroPatch recordings.
The % efficacy of modulators was determined from the GABA elicited currents recorded in the presence and absence of the test compound, using the formula:
[((compound peak current−leak)−(GABA peak current−leak))/(GABA peak current−leak)]*100,
where ‘leak’ is the leak baseline current at −65 mV, ‘compound peak current’ is the current elicited by co-application of compound and GABA, and ‘GABA peak current’ is the current elicited by GABA alone during the 5th GABA application. The results were presented as ‘relative efficacy’ for each compound generally at a concentration equal or higher than 100 times their determined Ki. The relative efficacy of a compound was calculated by normalising its efficacy to the efficacy of methyl-6,7-dimethoxy-4-ethyl-beta-carboline-3-carboxylate (DMCM) that was separately determined produced an attenuation of GABA-induced currents of −57±4%, n=5.

T1 sequence (P31644 32-462): as the sequence (P31644 32-462) above
T1 sequence (P28472 26-473 partner): as the sequence (P28472 26-473 partner) above
T1 sequence (P18507 40-475): as the sequence (P18507 40-475) above

In the case of `CNCCNC(=O)c1ncc(-c2ccc(NC(=O)c3c(-c4ccccc4)noc3C)c(OC)n2)cn1.Cl` [Example 173, N-[2-Methoxy-6-[2-[2-(methylamino)ethylcarbamoyl]pyrimidin-5-yl]-3-pyridyl]-5-methyl-3-phenyl-isoxazole-4-carboxamide hydrochloride], the “α5-GABAAR Relative Efficacy (to DMCM), Qpatch” value ([1]; Conc 0.1 μM) is reported as −0.88 and the Ki [2] is reported as 0.3 nM.

`COc1nc(-c2ccn3nc(N)nc3c2)ccc1NC(=O)c1c(-c2ccccc2)nnn1C` [Example 174, N-(6-(2-Amino-[1,2,4]triazolo[1,5-a]pyridin-7-yl)-2-methoxypyridin-3-yl)-1-methyl-4-phenyl-1H-1,2,3-5-carboxamide] was tested, and the “α5-GABAAR Relative Efficacy (to DMCM), Qpatch” value ([1]; Conc 0.3 μM) was −0.84 and the Ki [2] was 1.4 nM.

With `COc1nc(-c2cnc(NCCO)nc2)ccc1NC(=O)c1c(-c2ccccc2)noc1C` [Example 175, N-[6-[2-(2-Hydroxyethylamino)pyrimidin-5-yl]-2-methoxy-3-pyridyl]-5-methyl-3-phenyl-isoxazole-4-carboxamide] the “α5-GABAAR Relative Efficacy (to DMCM), Qpatch” value ([1]; Conc 0.1 μM) was −0.89 and the Ki [2] was 0.5 nM.

In the case of `Cc1onc(-c2ccccc2)c1C(=O)Nc1ccc(-n2ccnc2)nc1N(C)C` [Example 176, N-[2-(Dimethylamino)-6-imidazol-1-yl-3-pyridyl]-5-methyl-3-phenyl-isoxazole-4-carboxamide], the “α5-GABAAR Relative Efficacy (to DMCM), Qpatch” value ([1]; Conc 1 μM) is reported as −0.36 and the Ki [2] is reported as 9 nM.

`COc1nc(-n2cnc3c2CCNC3)ccc1NC(=O)c1c(-c2ccccc2)noc1C.Cl` [Example 178, N-[2-methoxy-6-(4,5,6,7-tetrahydroimidazo[4,5-c]pyridin-1-yl)-3-pyridyl]-5-methyl-3-phenyl-isoxazole-4-carboxamide hydrochloride] was tested, and the “α5-GABAAR Relative Efficacy (to DMCM), Qpatch” value ([1]; Conc 0.3 μM) was −0.62 and the Ki [2] was 2 nM.

In the case of `COc1nc(-c2cnc(CN3CCOCC3)nc2)ccc1NC(=O)c1c(-c2ccccc2)noc1C` [Example 181, N-[2-Methoxy-6-[2-(morpholinomethyl)pyrimidin-5-yl]-3-pyridyl]-5-methyl-3-phenyl-isoxazole-4-carboxamide], the “α5-GABAAR Relative Efficacy (to DMCM), SyncroPatch” value [3] is reported as −1.05 and the Ki [2] is reported as 1.9 nM.

For `CNCc1ccc(-c2ccc(NC(=O)c3c(-c4ccccc4)noc3C)c(OC)n2)cc1.Cl` [Example 183, N-[2-Methoxy-6-[4-(methylaminomethyl)phenyl]-3-pyridyl]-5-methyl-3-phenyl-isoxazole-4-carboxamide hydrochloride], the “α5-GABAAR Relative Efficacy (to DMCM), Qpatch” value ([1]; Conc 3 μM) was −0.68 and the Ki [2] was 14.2 nM.

With `COc1nc(-c2cnc(CN)nc2)ccc1NC(=O)c1c(-c2ccc(F)cc2)nnn1C.Cl` [Example 184, N-(6-(2-(Aminomethyl)pyrimidin-5-yl)-2-methoxypyridin-3-yl)-4-(4-fluorophenyl)-1-methyl-1H-1,2,3-triazole-5-carboxamide hydrochloride] the “α5-GABAAR Relative Efficacy (to DMCM), Qpatch” value ([1]; Conc 0.3 μM) was −0.45 and the Ki [2] was 1.5 nM.

`COc1nc(-c2ncn3c2CN(C)CC3)ccc1NC(=O)c1c(-c2ccccc2)noc1C` [Example 186, N-(2-Methoxy-6-(7-methyl-5,6,7,8-tetrahydroimidazol[1,5-a]pyrazin-1-yl)pyridin-3-yl)-5-methyl-3-phenylisoxazole-4-carboxamide] was tested, and the “α5-GABAAR Relative Efficacy (to DMCM), Qpatch” value ([1]; Conc 3 μM) was −0.69 and the Ki [2] was 17.5 nM.

`COc1nc(-c2ncn3c2CNCC3)ccc1NC(=O)c1c(-c2ccccc2)noc1C` [Example 187, N-(2-Methoxy-6-(5,6,7,8-tetrahydroimidazo[1,5-a]pyrazin-1-yl)pyridin-3-yl)-5-methyl-3-phenylisoxazole-4-carboxamide dihydrochloride] was tested, and the “α5-GABAAR Relative Efficacy (to DMCM), Qpatch” value ([1]; Conc 3 μM) was −0.46 and the Ki [2] was 23.5 nM.

`COc1nc(-c2cnc(NC3CNC3)nc2)ccc1NC(=O)c1c(-c2ccccc2)noc1C` [Example 188, N-[6-[2-(Azetidin-3-ylamino)pyrimidin-5-yl]-2-methoxy-3-pyridyl]-5-methyl-3-phenyl-isoxazole-4-carboxamide] was tested, and the “α5-GABAAR Relative Efficacy (to DMCM), Qpatch” value ([1]; Conc 0.1 μM) was −1.08 and the Ki [2] was 0.5 nM.

With `COc1nc(-c2cn(CCN)cn2)ccc1NC(=O)c1c(-c2ccccc2)noc1C` [Example 200, N-(6-(1-(2-Aminoethyl)-1H-imidazol-4-yl)-2-methoxypyridin-3-yl)-5-methyl-3-phenylisoxazole-4-carboxamide dihydrochloride] the “α5-GABAAR Relative Efficacy (to DMCM), Qpatch” value ([1]; Conc 3 μM) was −0.53 and the Ki [2] was 16.8 nM.

`Cc1onc(-c2ccc(F)cc2)c1C(=O)Nc1ccc(-n2ccnc2)nc1OC(C)C` [Example 204, 3-(4-Fluorophenyl)-N-(6-imidazol-1-yl-2-isopropoxy-3-pyridyl)-5-methyl-isoxazole-4-carboxamide] was tested, and the “α5-GABAAR Relative Efficacy (to DMCM), Qpatch” value ([1]; Conc 0.1 μM) was −0.39 and the Ki [2] was 1.1 nM.

For `Cc1onc(-c2ccc(F)cc2)c1C(=O)Nc1ccc(-c2cnc(CN)nc2)nc1OC(C)C.Cl` [Example 205, N-(6-(2-(Aminomethyl)pyrimidin-5-yl)-2-isopropoxypyridin-3-yl)-3-(4-fluorophenyl)-5-methylisoxazole-4-carboxamide hydrochloride], the “α5-GABAAR Relative Efficacy (to DMCM), Qpatch” value ([1]; Conc 0.1 μM) was −0.61 and the Ki [2] was 0.4 nM.

With `Cc1onc(-c2ccc(F)cc2)c1C(=O)Nc1ccc(-c2cnc3n2CCN(C)C3)nc1OC(C)C.Cl` [Example 209, 3-(4-Fluorophenyl)-N-(2-isopropoxy-6-(7-methyl-5,6,7,8-tetrahydroimidazo[1,2-a]pyrazin-3-yl)pyridin-3-yl)-5-methylisoxazole-4-carboxamide hydrochloride] the “α5-GABAAR Relative Efficacy (to DMCM), SyncroPatch” value [3] was −0.60 and the Ki [2] was 0.3 nM.

With `COc1nc(-c2cnc(N)nc2)ccc1NC(=O)c1c(-c2ccc(F)cc2)noc1C` [Example 213, N-[6-(2-Aminopyrimidin-5-yl)-2-methoxy-3-pyridyl]-3-(4-fluorophenyl)-5-methyl-isoxazole-4-carboxamide] the “α5-GABAAR Relative Efficacy (to DMCM), SyncroPatch” value [3] was −0.85 and the Ki [2] was 0.4 nM.

With `Cc1onc(-c2ccccc2)c1C(=O)Nc1ccc(-c2cnc(N)nc2)nc1OC(C)C` [Example 214, N-[6-(2-Aminopyrimidin-5-yl)-2-isopropoxy-3-pyridyl]-5-methyl-3-phenyl-isoxazole-4-carboxamide] the “α5-GABAAR Relative Efficacy (to DMCM), SyncroPatch” value [3] was −0.81 and the Ki [2] was 0.4 nM.

With `Cc1onc(-c2ccccc2)c1C(=O)Nc1ccc(-c2ccc(N)nc2)nc1OC(C)C` [Example 215, N-[6-(6-Amino-3-pyridyl)-2-isopropoxy-3-pyridyl]-5-methyl-3-phenyl-isoxazole-4-carboxamide] the “α5-GABAAR Relative Efficacy (to DMCM), SyncroPatch” value [3] was −0.65 and the Ki [2] was 0.6 nM.

For `Cc1onc(-c2ccc(F)cc2)c1C(=O)Nc1ccc(-c2cnc(N)nc2)nc1OC1COC1` [Example 216, N-[6-(2-Aminopyrimidin-5-yl)-2-(oxetan-3-yloxy)-3-pyridyl]-3-(4-fluorophenyl)-5-methyl-isoxazole-4-carboxamide], the “α5-GABAAR Relative Efficacy (to DMCM), SyncroPatch” value [3] was −0.67 and the Ki [2] was 1.5 nM.
